Data: the supplement of paper PMC10627819

How the values were obtained:
[1] = test system: B. subtilis 168; test: fitness (endpoint OD595 vs no drug) (fraction); higher = more growth
Summary of the method: (§1)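 Bacterial fitness was scored as optical density at the stationary-phase transition relative to the robust mean of no-drug control wells. Scores are capped at 1. The growth data were OD595 readings every 30 min for 14 h at 37 °C, background-subtracted against the first reading, from 384-well plates inoculated at OD595 0.01 in TSB, LB Lennox or CY.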

[2] = test system: B. subtilis 168; test: Bliss interaction score (quartile over a dose matrix) (fitness difference); higher = more antagonism (negative = synergy)
Summary of the method: (§2)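 Growth was read as OD595 when cultures entered stationary phase, and each value was divided by the plate's robust no-drug mean and capped at 1. This normalised ratio is the fitness value, and fitness for each single drug came from the combination data. The Bliss score subtracts the expected fitness, taken as the product, from the observed fitness and is given as quartiles across technical, biological and donor/recipient replicates.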

[3] = test system: S. aureus DSM 20231; test: as above
Summary of the method: as §2

[4] = test system: S. aureus Newman; test: as above
Summary of the method: as §2

[5] = test system: S. pneumoniae D39V; test: as above
Summary of the method: as §2

[6] = test system: S. pneumoniae D39V; test: fitness (endpoint OD595 vs no drug) (fraction); higher = more growth
Summary of the method: as §1
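Throughout, for Bliss interaction score (quartile over a dose matrix): first quartile when negative (synergy) and third quartile when positive (antagonism).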
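Throughout, for fitness (endpoint OD595 vs no drug): OD595 on entry to stationary phase over no-drug wells; at most 1.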

CO[C@@H]1[C@@H](OC(N)=O)[C@@H](O)[C@H](Oc2ccc3c(O)c(NC(=O)c4ccc(O)c(CC=C(C)C)c4)c(=O)oc3c2C)OC1(C)C [Novobiocin] + Cc1onc(-c2ccccc2)c1C(=O)N[C@@H]1C(=O)N2[C@@H]1SC(C)(C)[C@@H]2C(=O)O [Oxacillin]
fitness, [1]
Conditions	first compound 0.0125 µg/mL	first compound 0.025 µg/mL	first compound 0.05 µg/mL
partner 0.002 µg/mL	0.988	0.974	≥ 1
partner 0.004 µg/mL	0.949	0.926	≥ 1
partner 0.008 µg/mL	0.946	0.895	≥ 1

fitness, [1], one replicate
Conditions	first compound 0.05 µg/mL	first compound 0.1 µg/mL	first compound 0.125 µg/mL	first compound 0.2 µg/mL	first compound 0.25 µg/mL	first compound 0.5 µg/mL
partner 0.0078 µg/mL	–	–	0.997	–	0.968	0.547
partner 0.0155 µg/mL	–	–	0.952	–	0.948	0.498
partner 0.031 µg/mL	–	–	0.848	–	0.798	0.289
partner 0.075 µg/mL	0.673	0.672	–	0.734	–	–
partner 0.15 µg/mL	0.0266	0.0276	–	0.0165	–	–
partner 0.3 µg/mL	0.0465	0.036	–	0.0154	–	–

Conditions	Bliss interaction score
[2]	0.0603
[3]	0.0609
[4]	-0.0672
[5]	-0.0758

CO[C@H]1/C=C/O[C@@]2(C)Oc3c(C)c(O)c4c(O)c(c(/C=N/N5CCN(C)CC5)c(O)c4c3C2=O)NC(=O)/C(C)=C\C=C\[C@H](C)[C@H](O)[C@@H](C)[C@@H](O)[C@@H](C)[C@H](OC(C)=O)[C@@H]1C [Rifampicin] + CC1=C\[C@@H](O)CC(=O)Cc2nc(co2)C(=O)N2CCC=C2C(=O)O[C@H](C(C)C)[C@H](C)/C=C/C(=O)NC\C=C\1 [Virginiamycin M1]
[6], one replicate
Conditions	fitness
first compound 0.025 µg/mL, partner 0.5 µg/mL	0.876
first compound 0.025 µg/mL, partner 1 µg/mL	0.905
first compound 0.025 µg/mL, partner 2 µg/mL	0.822
first compound 0.05 µg/mL, partner 0.15 µg/mL	≥ 1
first compound 0.05 µg/mL, partner 0.3 µg/mL	0.993
first compound 0.1 µg/mL, partner 0.15 µg/mL	0.891
first compound 0.1 µg/mL, partner 0.3 µg/mL	0.884
first compound 0.2 µg/mL, partner 0.15 µg/mL	0.267
first compound 0.2 µg/mL, partner 0.3 µg/mL	0.203

[6], first compound 0.2 µg/mL
Conditions	fitness
partner 0.5 µg/mL	0.194
partner 1 µg/mL	0.0581
partner 2 µg/mL	0.129

Conditions	Bliss interaction score
[2]	-0.0938
[3]	0.0924
[4]	-0.0218
[5]	0.111

CO[C@H]1/C=C/O[C@@]2(C)Oc3c(C)c(O)c4c(O)c(c(/C=N/N5CCN(C)CC5)c(O)c4c3C2=O)NC(=O)/C(C)=C\C=C\[C@H](C)[C@H](O)[C@@H](C)[C@@H](O)[C@@H](C)[C@H](OC(C)=O)[C@@H]1C [Rifampicin] + CN(C)c1cc(NC(=O)CNC(C)(C)C)c(O)c2c1C[C@H]1C[C@H]3[C@H](N(C)C)C(O)=C(C(N)=O)C(=O)[C@@]3(O)C(O)=C1C2=O [Tigecycline]
[6], first compound 0.025 µg/mL, one replicate
Conditions	fitness
partner 0.65 µg/mL	0.86
partner 1.3 µg/mL	0.808
partner 2.6 µg/mL	0.839

[6], first compound 0.2 µg/mL
Conditions	fitness
partner 0.65 µg/mL	0.197
partner 1.3 µg/mL	0.159
partner 2.6 µg/mL	0.196

Conditions	Bliss interaction score
[2]	0.0457
[3]	0.026
[4]	-0.0189
[5]	-0.0785

CO[C@H]1/C=C/O[C@@]2(C)Oc3c(C)c(O)c4c(O)c(c(/C=N/N5CCN(C)CC5)c(O)c4c3C2=O)NC(=O)/C(C)=C\C=C\[C@H](C)[C@H](O)[C@@H](C)[C@@H](O)[C@@H](C)[C@H](OC(C)=O)[C@@H]1C [Rifampicin] + CN(N=O)C(=O)N[C@@H](C=O)[C@@H](O)[C@H](O)[C@H](O)CO [Streptozotocin]
[6], first compound 0.025 µg/mL, one replicate
Conditions	fitness
partner 1.2 µg/mL	0.825
partner 2.4 µg/mL	0.838
partner 4.8 µg/mL	0.786

fitness, [6]
Conditions	partner 1.2 µg/mL	partner 2.4 µg/mL	partner 4.8 µg/mL
first compound 0.05 µg/mL	0.831	0.879	0.766
first compound 0.2 µg/mL	0.0914	0.108	0

Conditions	Bliss interaction score
[2]	-0.0644
[3]	0.034
[4]	-0.0244
[5]	-0.0476

CO[C@H]1/C=C/O[C@@]2(C)Oc3c(C)c(O)c4c(O)c(c(/C=N/N5CCN(C)CC5)c(O)c4c3C2=O)NC(=O)/C(C)=C\C=C\[C@H](C)[C@H](O)[C@@H](C)[C@@H](O)[C@@H](C)[C@H](OC(C)=O)[C@@H]1C [Rifampicin] + CN[C@@H]1[C@H](O)[C@H](NC)[C@H]2O[C@@]3(O)C(=O)C[C@@H](C)O[C@H]3O[C@@H]2[C@H]1O [Spectinomycin]
fitness, [6], one replicate
Conditions	partner 4 µg/mL	partner 8 µg/mL	partner 16 µg/mL
first compound 0.025 µg/mL	0.848	0.716	0.282
first compound 0.2 µg/mL	–	–	0

fitness, [6]
Conditions	first compound 0.05 µg/mL	first compound 0.1 µg/mL	first compound 0.2 µg/mL
partner 4 µg/mL	0.497	0.297	0.0634
partner 8 µg/mL	–	0.202	0.069
partner 16 µg/mL	0.23	0.204	–

Conditions	Bliss interaction score
[2]	-0.0584
[3]	-0.0309
[4]	0.0508
[5]	-0.153

CO[C@H]1/C=C/O[C@@]2(C)Oc3c(C)c(O)c4c(O)c(c(/C=N/N5CCN(C)CC5)c(O)c4c3C2=O)NC(=O)/C(C)=C\C=C\[C@H](C)[C@H](O)[C@@H](C)[C@@H](O)[C@@H](C)[C@H](OC(C)=O)[C@@H]1C [Rifampicin] + CN[C@@H]1[C@H](O[C@H]2[C@H](O[C@H]3[C@H](O)[C@@H](O)[C@H](N=C(N)N)[C@@H](O)[C@@H]3N=C(N)N)O[C@@H](C)[C@]2(O)C=O)O[C@@H](CO)[C@H](O)[C@H]1O [Streptomycin]
[6], one replicate
Conditions	fitness
first compound 0.025 µg/mL, partner 2 µg/mL	0.804
first compound 0.025 µg/mL, partner 4 µg/mL	0.823
first compound 0.025 µg/mL, partner 8 µg/mL	0.725
first compound 0.05 µg/mL, partner 16 µg/mL	0.272
first compound 0.1 µg/mL, partner 16 µg/mL	0.215
first compound 0.2 µg/mL, partner 16 µg/mL	0.137

fitness, [6]
Conditions	partner 2 µg/mL	partner 4 µg/mL	partner 8 µg/mL
first compound 0.1 µg/mL	–	0.292	0.304
first compound 0.2 µg/mL	0.0493	0.0964	0.185

Conditions	Bliss interaction score
[2]	0.184
[3]	-0.0315
[4]	-0.0179
[5]	-0.121

CO[C@H]1/C=C/O[C@@]2(C)Oc3c(C)c(O)c4c(O)c(c(/C=N/N5CCN(C)CC5)c(O)c4c3C2=O)NC(=O)/C(C)=C\C=C\[C@H](C)[C@H](O)[C@@H](C)[C@@H](O)[C@@H](C)[C@H](OC(C)=O)[C@@H]1C [Rifampicin] + CN[C@H](CC(C)C)C(=O)N[C@H]1C(=O)N[C@@H](CC(N)=O)C(=O)N[C@H]2C(=O)N[C@H]3C(=O)N[C@H](C(=O)N[C@H](C(=O)O)c4cc(O)cc(O)c4-c4cc3ccc4O)[C@H](O)c3ccc(c(Cl)c3)Oc3cc2cc(c3O[C@@H]2O[C@H](CO)[C@@H](O)[C@H](O)[C@H]2O[C@H]2C[C@](C)(N)[C@H](O)[C@H](C)O2)Oc2ccc(cc2Cl)[C@H]1O [Vancomycin]
fitness, [6], one replicate
Conditions	partner 0.125 µg/mL	partner 0.25 µg/mL	partner 0.5 µg/mL
first compound 0.025 µg/mL	0.903	0.823	0.267
first compound 0.2 µg/mL	–	0	0

fitness, [6]
Conditions	partner 0.03125 µg/mL	partner 0.0625 µg/mL	partner 0.125 µg/mL	partner 0.25 µg/mL	partner 0.5 µg/mL
first compound 0.05 µg/mL	0.886	0.846	–	0.707	0.299
first compound 0.1 µg/mL	0.537	0.476	–	–	–
first compound 0.2 µg/mL	0.162	0.161	0.0937	–	–

Conditions	Bliss interaction score
[2]	0.029
[3]	-0.0199
[4]	0.0383
[5]	0.135

CN[C@@H]1[C@H](O[C@H]2[C@H](O[C@H]3[C@H](O)[C@@H](O)[C@H](N=C(N)N)[C@@H](O)[C@@H]3N=C(N)N)O[C@@H](C)[C@]2(O)C=O)O[C@@H](CO)[C@H](O)[C@H]1O [Streptomycin] + COc1cc(Cc2cnc(N)nc2N)cc(OC)c1OC [Trimethoprim]
fitness, [1], one replicate
Conditions	partner 0.1 µg/mL	partner 0.125 µg/mL	partner 0.2 µg/mL	partner 0.4 µg/mL
first compound 2 µg/mL	0.713	0.605	0.493	0.253
first compound 4 µg/mL	0.0534	0.0554	0.0535	0.0313
first compound 8 µg/mL	0.0279	0.0253	0.0392	0.025

fitness, [1]
Conditions	partner 0.25 µg/mL	partner 0.5 µg/mL	partner 1 µg/mL	partner 2 µg/mL
first compound 2 µg/mL	0.416	0.103	0.0483	0.0464
first compound 4 µg/mL	0.0303	0.0474	0.0558	0.0621
first compound 8 µg/mL	0.0127	0.0322	0.0309	0.0326

Conditions	Bliss interaction score
[2]	-0.252
[3]	-0.0639
[4]	0.0902
[5]	-0.175
